Assay [1] concerns the target Carbonic anhydrase 4 (Homo sapiens, UniProt P22748). Nature of the assay: Inhibition of recombinant human carbonic anhydrase 4 incubated for 15 mins prior to testing measured for 10 to 100 secs by phenol red based stopped-flow CO2 hydration assay.
Assay [2] deals with Carbonic anhydrase 2 (Homo sapiens, UniProt P00918). Briefly: Inhibition of recombinant human carbonic anhydrase 2 incubated for 15 mins prior to testing measured for 10 to 100 secs by phenol red based stopped-flow CO2 hydration assay.
In assay [3] the target is Carbonic anhydrase 1 (Homo sapiens, UniProt P00915). Briefly: Inhibition of recombinant human carbonic anhydrase 1 incubated for 15 mins prior to testing measured for 10 to 100 secs by phenol red based stopped-flow CO2 hydration assay.
Assay [4] concerns the target Carbonic anhydrase 7 (Homo sapiens, UniProt P43166). Nature of the assay: Inhibition of recombinant human carbonic anhydrase 7 incubated for 15 mins prior to testing measured for 10 to 100 secs by phenol red based stopped-flow CO2 hydration assay.

Chain of Carbonic anhydrase 7 (P43166 whole entry): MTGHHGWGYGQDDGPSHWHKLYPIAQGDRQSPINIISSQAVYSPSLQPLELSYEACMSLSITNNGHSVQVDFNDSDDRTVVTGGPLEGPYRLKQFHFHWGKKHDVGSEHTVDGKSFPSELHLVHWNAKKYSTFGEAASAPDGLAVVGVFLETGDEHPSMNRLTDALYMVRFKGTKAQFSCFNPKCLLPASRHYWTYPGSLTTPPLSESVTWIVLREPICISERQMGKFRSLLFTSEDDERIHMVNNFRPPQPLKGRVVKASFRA
Chain of Carbonic anhydrase 1 (P00915 whole entry): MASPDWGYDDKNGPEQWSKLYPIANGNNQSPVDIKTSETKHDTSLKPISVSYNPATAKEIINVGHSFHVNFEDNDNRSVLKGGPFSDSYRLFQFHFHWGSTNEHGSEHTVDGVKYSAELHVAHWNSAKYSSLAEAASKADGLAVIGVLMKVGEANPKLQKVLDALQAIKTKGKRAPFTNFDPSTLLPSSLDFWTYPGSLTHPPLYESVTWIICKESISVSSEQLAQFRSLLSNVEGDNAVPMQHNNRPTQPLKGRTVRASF
Chain of Carbonic anhydrase 4 (P22748 whole entry): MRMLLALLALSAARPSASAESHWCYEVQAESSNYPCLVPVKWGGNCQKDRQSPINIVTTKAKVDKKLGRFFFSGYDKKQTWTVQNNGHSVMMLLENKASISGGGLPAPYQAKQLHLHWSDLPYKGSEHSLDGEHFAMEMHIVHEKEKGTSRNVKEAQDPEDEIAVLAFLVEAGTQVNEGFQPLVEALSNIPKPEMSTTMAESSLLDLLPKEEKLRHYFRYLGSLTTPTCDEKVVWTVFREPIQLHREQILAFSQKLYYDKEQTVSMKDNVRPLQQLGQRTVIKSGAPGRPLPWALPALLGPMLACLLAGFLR

What is called Ki is a measure of affinity in units of concentration, obtained from inhibition or displacement. For the molecule `NS(=O)(=O)c1ccc(N2CCN=C2c2ccc(F)cc2)cc1`, the inhibitory constant (Ki) in assay [1] stood at 9.73 µM; in assay [2], 76.1 nM; in assay [3], 2340 nM; in assay [4] it was 303 nM. Take `NS(=O)(=O)c1ccc(N2CCN=C2c2ccc(Cl)cc2)cc1`: the Ki came out at 8.14 µM in assay [1], 46.7 nM in assay [2], 960 nM in assay [3] and 269 nM in assay [4]. Consider `NS(=O)(=O)c1ccc(C2=NCCN2c2ccc(F)cc2)cc1`, for which the inhibition constant Ki in assay [2] was found to be 742 nM. For the molecule `CCOc1ccccc1N1CCN=C1c1ccc(S(N)(=O)=O)cc1`, the Ki in assay [2] is 866 nM. Take `COc1ccc(N2CCN=C2c2ccc(S(N)(=O)=O)cc2)cc1`: the Ki in assay [2] worked out at 53.3 nM. Take `NS(=O)(=O)c1ccc(C2=NCCN2c2cncnc2)cc1`: in assay [2], the Ki came out at 703 nM. Still for that read-out and setting: the result for `NS(=O)(=O)c1ccc(C2=NCCN2c2ccc(Cl)cc2)cc1` reads 182 nM. Take `COc1ccc(N2CCN=C2c2ccc(S(N)(=O)=O)cc2)cc1OC`: the Ki in assay [2] stood at 724 nM. Consider `Cc1ccccc1N1CCN=C1c1ccc(S(N)(=O)=O)cc1`, for which, in assay [2], the Ki worked out at 61.7 nM.

For `NS(=O)(=O)c1ccc(C2=NCCN2c2ccccc2)cc1`, in assay [2], the Ki is 376 nM. Turning to `NS(=O)(=O)c1ccc(C2=NCCN2c2cccnc2)cc1`, in assay [2], the Ki was 848 nM.

The record behind these values is ChEMBL document CHEMBL4130530, “Lucky Switcheroo: Dramatic Potency and Selectivity Improvement of Imidazoline Inhibitors of Human Carbonic Anhydrase VII” (ACS Med Chem Lett, 2017).
